Data reported in ChEMBL document CHEMBL4138123, “Design, synthesis and biological evaluation of novel pyrazolochalcones as potential modulators of PI3K/Akt/mTOR pathway and inducers of apoptosis in breast cancer cells” (Eur J Med Chem, 2017).

Legend:
Format in all cases: functional
SK-OV-3 = test: Cytotoxicity against human SKOV3 cells assessed as cell growth at 0.1 uM after 48 hrs by sulforhodamine B assay relative to control; conditions: SK-OV-3, 48 h, read-out: Activity
MOLT-4 = test: Cytotoxicity against human MOLT4 cells assessed as cell growth at 1 uM after 48 hrs by sulforhodamine B assay relative to control; conditions: MOLT-4, 48 h, read-out: Activity
K562 [1] = test: Cytotoxicity against human K562 cells assessed as cell growth at 0.1 uM after 48 hrs by sulforhodamine B assay relative to control; conditions: K562, 48 h, read-out: Activity
MCF7 = test: Cytotoxicity against human MCF7 cells assessed as cell growth at 0.01 uM after 48 hrs by sulforhodamine B assay relative to control; conditions: MCF7, 48 h, read-out: Activity
NCI-H522 = test: Cytotoxicity against human NCI-H522 cells assessed as cell growth at 1 uM after 48 hrs by sulforhodamine B assay relative to control; conditions: NCI-H522, 48 h, read-out: Activity
HCT-15 = test: Cytotoxicity against human HCT15 cells assessed as cell growth at 1 uM after 48 hrs by sulforhodamine B assay relative to control; conditions: HCT-15, 48 h, read-out: Activity
MDA-MB-231 [2] = test: Cytotoxicity against human MDA-MB-231 cells assessed as cell growth at 100 uM after 48 hrs by sulforhodamine B assay relative to control; conditions: MDA-MB-231, 48 h, read-out: Activity
K562 [3] = test: Cytotoxicity against human K562 cells assessed as cell growth at 0.01 uM after 48 hrs by sulforhodamine B assay relative to control; conditions: K562, 48 h, read-out: Activity
M14 = test: Cytotoxicity against human M14 cells assessed as cell growth at 1 uM after 48 hrs by sulforhodamine B assay relative to control; conditions: M14, 48 h, read-out: Activity
KM12 = test: Cytotoxicity against human KM12 cells assessed as cell growth at 10 uM after 48 hrs by sulforhodamine B assay relative to control; conditions: KM12, 48 h, read-out: Activity
MDA-MB-231 [4] = test: Cytotoxicity against human MDA-MB-231 cells assessed as cell growth at 0.01 uM after 48 hrs by sulforhodamine B assay relative to control; conditions: MDA-MB-231, 48 h, read-out: Activity
SK-MEL-28 = test: Cytotoxicity against human SK-MEL-28 cells assessed as cell growth at 0.01 uM after 48 hrs by sulforhodamine B assay relative to control; conditions: SK-MEL-28, 48 h, read-out: Activity
SNB-19 = test: Cytotoxicity against human SNB19 cells assessed as cell growth at 10 uM after 48 hrs by sulforhodamine B assay relative to control; conditions: SNB-19, 48 h, read-out: Activity
SF-268 = test: Cytotoxicity against human SF268 cells assessed as growth inhibition after 48 hrs by sulforhodamine B assay; conditions: SF-268, 48 h; for CC50: read-out: LC50 (the source's name)
Hs-578T = test: Cytotoxicity against human Hs 578T cells assessed as cell growth at 0.01 uM after 48 hrs by sulforhodamine B assay relative to control; conditions: read-out: Activity
NCI-H460 [5] = test: Cytotoxicity against human NCI-H460 cells assessed as growth inhibition after 48 hrs by sulforhodamine B assay; conditions: NCI-H460, 48 h
HCT-116 = test: Cytotoxicity against human HCT116 cells assessed as cell growth at 10 uM after 48 hrs by sulforhodamine B assay relative to control; conditions: HCT-116, 48 h, read-out: Activity
SK-MEL-2 = test: Cytotoxicity against human SK-MEL-2 cells assessed as growth inhibition after 48 hrs by sulforhodamine B assay; conditions: SK-MEL-2, 48 h
OVCAR-5 [6] = test: Cytotoxicity against human OVCAR5 cells assessed as cell growth at 10 uM after 48 hrs by sulforhodamine B assay relative to control; conditions: OVCAR-5, 48 h, read-out: Activity
SW-620 = test: Cytotoxicity against human SW620 cells assessed as cell growth at 100 uM after 48 hrs by sulforhodamine B assay relative to control; conditions: SW-620, 48 h, read-out: Activity
NCI-H23 = test: Cytotoxicity against human NCI-H23 cells assessed as cell growth at 10 uM after 48 hrs by sulforhodamine B assay relative to control; conditions: NCI-H23, 48 h, read-out: Activity
NCI-H460 [7] = test: Cytotoxicity against human NCI-H460 cells assessed as cell growth at 0.01 uM after 48 hrs by sulforhodamine B assay relative to control; conditions: NCI-H460, 48 h, read-out: Activity
ACHN = test: Cytotoxicity against human ACHN cells assessed as growth inhibition after 48 hrs by sulforhodamine B assay
NCI-H322M [8] = test: Cytotoxicity against human NCI-H322M cells assessed as cell growth at 0.1 uM after 48 hrs by sulforhodamine B assay relative to control; conditions: read-out: Activity
RPMI-8226 = test: Cytotoxicity against human RPMI8226 cells assessed as cell growth at 1 uM after 48 hrs by sulforhodamine B assay relative to control; conditions: RPMI-8226, 48 h, read-out: Activity
NCI-H322M [9] = test: Cytotoxicity against human NCI-H322M cells assessed as cell growth at 100 uM after 48 hrs by sulforhodamine B assay relative to control; conditions: read-out: Activity
SN12C = test: Cytotoxicity against human SN12C cells assessed as growth inhibition after 48 hrs by sulforhodamine B assay
T47D = test: Cytotoxicity against human T47D cells assessed as cell growth at 1 uM after 48 hrs by sulforhodamine B assay relative to control; conditions: read-out: Activity
NCI/ADR-RES = test: Cytotoxicity against human NCI/ADR-RES cells assessed as cell growth at 100 uM after 48 hrs by sulforhodamine B assay relative to control; conditions: read-out: Activity
A549 = test: Cytotoxicity against human A549/ATCC cells assessed as cell growth at 0.1 uM after 48 hrs by sulforhodamine B assay relative to control; conditions: A549, 48 h, read-out: Activity
HOP-62 = test: Cytotoxicity against human HOP62 cells assessed as cell growth at 10 uM after 48 hrs by sulforhodamine B assay relative to control; conditions: HOP-62, 48 h, read-out: Activity
RXF 393 = test: Cytotoxicity against human RXF393 cells assessed as cell growth at 0.01 uM after 48 hrs by sulforhodamine B assay relative to control; conditions: RXF 393, 48 h, read-out: Activity
SR [10] = test: Cytotoxicity against human SR cells assessed as cell growth at 10 uM after 48 hrs by sulforhodamine B assay relative to control; conditions: read-out: Activity
OVCAR-5 [11] = test: Cytotoxicity against human OVCAR5 cells assessed as cell growth at 0.01 uM after 48 hrs by sulforhodamine B assay relative to control; conditions: OVCAR-5, 48 h, read-out: Activity
SR [12] = test: Cytotoxicity against human SR cells assessed as cell growth at 100 uM after 48 hrs by sulforhodamine B assay relative to control; conditions: read-out: Activity

## COc1ccc(-c2cc(/C=C/C(=O)c3cc(OC)c(OC)c(OC)c3)[nH]n2)cc1OC
SK-OV-3
  growth at 0.1 µM: 87%
MOLT-4
  growth at 1 µM: 69%
K562 [1]
  growth at 0.1 µM: 94%
MCF7
  growth at 0.01 µM: 92%
NCI-H522
  growth at 1 µM: 71%
HCT-15
  growth at 1 µM: 57%
MDA-MB-231 [2]
  growth at 100 µM: -71%
K562 [3]
  growth at 0.01 µM: 100%
M14
  growth at 1 µM: 91%
KM12
  growth at 10 µM: -81%
MDA-MB-231 [4]
  growth at 0.01 µM: 98%
SK-MEL-28
  growth at 0.01 µM: 95%
SNB-19
  growth at 10 µM: -29%
SF-268
  GI50: 1.68 µM
  TGI: 3.9 µM
  CC50: 9.03 µM
Hs-578T
  growth at 0.01 µM: 95%
NCI-H460 [5]
  GI50: 1.04 µM
  LC50: 29.9 µM
  TGI: 3.6 µM
HCT-116
  growth at 10 µM: -81%
SK-MEL-2
  GI50: 2.69 µM
  LC50 (concentration killing 50% of cells): 29.5 µM
  TGI: 7.7 µM
OVCAR-5 [6]
  growth at 10 µM: -47%
SW-620
  growth at 100 µM: -43%
NCI-H23
  growth at 10 µM: -39%
NCI-H460 [7]
  growth at 0.01 µM: 100%
ACHN
  GI50: 1.45 µM
  LC50: 5.5 µM
  TGI: 2.82 µM
NCI-H322M [8]
  growth at 0.1 µM: 88%
RPMI-8226
  growth at 1 µM: 11%
NCI-H322M [9]
  growth at 100 µM: -91%
SN12C
  GI50: 1.77 µM
  LC50: 8.26 µM
  TGI: 3.83 µM
T47D
  growth at 1 µM: 51%
NCI/ADR-RES
  growth at 100 µM: -7%
A549
  growth at 0.1 µM: 98%
HOP-62
  growth at 10 µM: -57%
RXF 393
  growth at 0.01 µM: 103%
SR [10]
  growth at 10 µM: -10%
OVCAR-5 [11]
  growth at 0.01 µM: 102%
SR [12]
  growth at 100 µM: -14%

## COc1ccc(C(=O)/C=C/c2cc(-c3cc(OC)c(OC)c(OC)c3)n[nH]2)cc1OC
SK-OV-3
  growth at 0.1 µM: 105%
MOLT-4
  growth at 1 µM: 88%
K562 [1]
  growth at 0.1 µM: 92%
MCF7
  growth at 0.01 µM: 89%
NCI-H522
  growth at 1 µM: -63%
HCT-15
  growth at 1 µM: 65%
MDA-MB-231 [2]
  growth at 100 µM: -84%
K562 [3]
  growth at 0.01 µM: 96%
M14
  growth at 1 µM: 94%
KM12
  growth at 10 µM: -87%
MDA-MB-231 [4]
  growth at 0.01 µM: 104%
SK-MEL-28
  growth at 0.01 µM: 97%
SNB-19
  growth at 10 µM: -80%
SF-268
  TGI: 3.96 µM
  CC50: 8.59 µM
Hs-578T
  growth at 0.01 µM: 98%
NCI-H460 [5]
  LC50: 7.86 µM
  TGI: 3.33 µM
HCT-116
  growth at 10 µM: -65%
SK-MEL-2
  LC50 (concentration killing 50% of cells): 6.68 µM
  TGI: 3.51 µM
OVCAR-5 [6]
  growth at 10 µM: -93%
SW-620
  growth at 100 µM: -67%
NCI-H23
  growth at 10 µM: -36%
NCI-H460 [7]
  growth at 0.01 µM: 103%
ACHN
  LC50: 5.75 µM
  TGI: 3.09 µM
NCI-H322M [8]
  growth at 0.1 µM: 101%
RPMI-8226
  growth at 1 µM: 2%
NCI-H322M [9]
  growth at 100 µM: -90%
SN12C
  LC50: 6.37 µM
  TGI: 3.13 µM
T47D
  growth at 1 µM: 75%
NCI/ADR-RES
  growth at 100 µM: -40%
A549
  growth at 0.1 µM: 98%
HOP-62
  growth at 10 µM: -97%
RXF 393
  growth at 0.01 µM: 100%
SR [10]
  growth at 10 µM: 2%
OVCAR-5 [11]
  growth at 0.01 µM: 101%
SR [12]
  growth at 100 µM: 3%

## COc1cc(-c2cc(/C=C/C(=O)c3ccc(Cl)c(Cl)c3)[nH]n2)cc(OC)c1OC
SK-OV-3
  growth at 0.1 µM: 104%
MOLT-4
  growth at 1 µM: 97%
K562 [1]
  growth at 0.1 µM: 106%
MCF7
  growth at 0.01 µM: 105%
NCI-H522
  growth at 1 µM: 67%
HCT-15
  growth at 1 µM: 86%
MDA-MB-231 [2]
  growth at 100 µM: 2%
K562 [3]
  growth at 0.01 µM: 99%
M14
  growth at 1 µM: 107%
KM12
  growth at 10 µM: 19%
MDA-MB-231 [4]
  growth at 0.01 µM: 103%
SK-MEL-28
  growth at 0.01 µM: 108%
SNB-19
  growth at 10 µM: 50%
SF-268
  TGI: 63.3 µM
  CC50: > 100 µM
Hs-578T
  growth at 0.01 µM: 98%
NCI-H460 [5]
  LC50: > 100 µM
  TGI: 36.6 µM
HCT-116
  growth at 10 µM: 16%
SK-MEL-2
  LC50 (concentration killing 50% of cells): 83.8 µM
  TGI: 34.1 µM
OVCAR-5 [6]
  growth at 10 µM: 65%
SW-620
  growth at 100 µM: -5%
NCI-H23
  growth at 10 µM: 79%
NCI-H460 [7]
  growth at 0.01 µM: 105%
ACHN
  LC50: > 100 µM
  TGI: > 100 µM
NCI-H322M [8]
  growth at 0.1 µM: 92%
RPMI-8226
  growth at 1 µM: 33%
NCI-H322M [9]
  growth at 100 µM: 5%
SN12C
  LC50: > 100 µM
  TGI: > 100 µM
T47D
  growth at 1 µM: 62%
NCI/ADR-RES
  growth at 100 µM: 5%
A549
  growth at 0.1 µM: 99%
HOP-62
  growth at 10 µM: -9%
RXF 393
  growth at 0.01 µM: 96%
SR [10]
  growth at 10 µM: 8%
OVCAR-5 [11]
  growth at 0.01 µM: 97%
SR [12]
  growth at 100 µM: -51%
